# Results from US8343939B2, “Methods of modulating angiogenesis” (Joslin Diabetes Center, Inc., priority 2007, dated 2013).
# Assays:
# [1] = system: eNOS Ser1179 phosphorylation; assay: Western blot of eNOS phosphorylation in BAEC; assay type: cell-based, bovine; settings: for eNOS Ser1179 phosphorylation increased during stimulation: insulin 100 nM or VEGF 1 nM
# Experimental: (§1) Bovine aortic endothelial cells (BAEC) were isolated by scraping the luminal side of a calf aorta with a cover glass and transferring the harvested material to a 100 mm cell culture dish. The primary culture and subcultures were grown in Dulbecco's modified Eagle medium (DMEM) with 5.5 mM glucose, 10% (v/v) horse serum, 25 mM HEPES, 100 U/ml penicillin, and 100 μg/ml streptomycin in collagen I-coated dishes (BioCoat, BD BioSciences). Purity of the cultures was validated by the presence of typical “cobblestone” morphology during phase-contrast microscopy (16) and by the ability of cells to take up acetylated LDL (DiI AcLDL, Molecular Probes, Eugene, Oreg.). Cultures used for experiments were plated in 6-well plates (9.5 cm^2 wells), except for PKC translocation assays (see below). The cells were serum-starved for 16 hours before stimulation by replacing growth medium with DMEM containing 0.1% (w/v) bovine serum albumin. At the time of stimulation, cultures were typically 3 days old and confluent. GF109203X (GFX) (Calbiochem, San Diego, Calif.), wortmannin (Calbiochem), phorbol-12-myristate-13-acetate (PMA) (Sigma, St. Louis, Mo.), bovine insulin (Sigma), and VEGF-A165 (R & D Systems, Minneapolis, Minn.) were added directly to the culture medium when indicated, using an identical volume of solvent as control.
# (§2) Cultures were washed twice with ice-cold PBS and lysed in a buffer containing Tris (20 mM, pH 7.5), Triton X-100 (1% v/v), sodium pyrophosphate (2.5 mM); NaF (10 mM), NaCl (140 mM), EDTA (1 mM), EGTA (1 mM), β-glycerophosphate (1 mM), Na3VO4 (1 mM), leupeptin (1 μg/ml=2 μM), aprotinin (1 μg/ml=[…]), and phenylmethylsulfonylfluoride (1 mM). Protein concentration was measured by the Bradford method and samples reduced in modified Laemmli buffer (Invitrogen) and heated at 70° C. for 10 minutes. Equal sample volume and protein mass and reduced samples were separated on precast minigels (NuPAGE tris-acetate gels, Invitrogen) and electrotransferred to nitrocellulose.
# (§3) Primary antibody targets were visualized by incubation with horseradish peroxidase-linked secondary antibodies, enhanced chemiluminescence (Amersham Biosciences (currently GE Healthcare), Piscataway, N.J.), and exposure to X-ray film (Kodak, New Haven, Conn.). The film was scanned and signal intensity of protein bands quantitated with ImageQuant software (version 5.1, Molecular Dynamics/Amersham Biosciences/GE Healthcare, Piscataway, N.J.). The intensity of phospho-specific immunoblot was normalized to the intensity of the unstimulated condition and of the nonphospho-specific protein.
# BAEC were stimulated with insulin (100 nM, 5 minutes) or VEGF (1 nM, 5 minutes) after pretreatment with PMA (100 nM, 30 minutes) or vehicle as a control (DMSO, 0.2% (v/v)). Akt and eNOS phosphorylation in the BAEC was examined. In some experiments (FIGS. 1C and 1D), BAEC were also incubated with GFX (1 μM) or vehicle (DMSO 0.2%) 60 minutes before insulin or VEGF stimulation.
# (§4) BAEC were stimulated with insulin (100 nM, 5 minutes) or VEGF (1 nM, 5 minutes) after pretreatment with wortmannin (100 nM, 30 minutes before insulin or VEGF stimulation) or vehicle (DMSO 0.2% (v/v)). In some experiments (FIG. 2C), BAEC were incubated with wortmannin (60 minutes before VEGF stimulation) or DMSO, then with PMA (30 minutes before VEGF stimulation) or DMSO.
# [2] = system: Akt Ser473 phosphorylation; assay: Western blot of Akt phosphorylation in BAEC; assay type: cell-based, bovine; settings: for Akt Ser473 phosphorylation increased after stimulation: BAEC, insulin 100 nM or VEGF 1 nM; for decrease in Akt Ser473 phosphorylation: PMA 100 nM, 30 minutes
# Experimental: as §1, §2, §3
# BAEC were stimulated with insulin (100 nM, 5 minutes) or VEGF (1 nM, 5 minutes) after pretreatment with PMA (100 nM, 30 minutes) or vehicle as a control (DMSO, 0.2% (v/v)). Akt and eNOS phosphorylation in the BAEC was examined. […]
# as §4
# PKCε = settings: for translocation of PKCε from cytosol to membrane fractions: VEGF 1 nM, 3, 10 or 30 minutes, PMA 100 nM, 10 minutes
# Experimental: (§5) For each condition, three 15 cm plates (each 151 cm^2) were used. After stimulation, the plates were washed twice in ice-cold PBS and once in a hypertonic lysis buffer (Buffer A) containing Tris (pH 7.5, 20 mM), sucrose (300 mM), EDTA (2 mM), EGTA (0.5 mM), DTT (1 mM), leupeptin (10 μg/ml), and PMSF (1 mM). Each set of 3 plates were then scraped in a combined volume of 3 ml of hypertonic buffer, homogenized in a glass Dounce homogenizer, and centrifuged at 1,000×g for 10 minutes. The supernatant was ultracentrifuged at 100,000×g for 30 minutes, and the ensuing supernatant was taken aside and used as the cytosolic fraction. The pellet was washed once in Buffer B (Buffer A without sucrose), then homogenized in 2.7 ml Buffer B in a glass Dounce homogenizer, and finally lysed by adding 0.3 ml Triton X-100 to a final concentration of 1% (v/v) and rotated for 30 minutes. After ultracentrifugation at 100,000×g for 30 minutes, the supernatant was taken aside and used as the membrane fraction. By using similar volumes for the initial lysis and for the membrane pellet, protein abundance in the cytosol and membrane fraction approximately represent their relative expression in the intact cell. Protein concentration was measured in both fractions with the bicinchoninic acid (BCA) assay, and samples were normalized for protein concentration and assayed by electrophoresis and Western blotting as described below.
# (§6) BAEC were stimulated with VEGF (1 nM; 3, 10, or 30 minutes) or PMA (100 nM, 10 minutes).
# PKCδ = settings: for translocation of PKCδ from cytosol to membrane fractions: VEGF 1 nM, 3, 10 or 30 minutes, PMA 100 nM, 10 minutes
# Experimental: as §5, §6
# PKCα = PKCα (Bos taurus, UniProt P04409); assay: Membrane translocation of PKC isoforms (cell fractionation, immunoblot) in BAEC; assay type: cell-based, bovine; settings: for translocation of PKCα from cytosol to membrane fractions: VEGF 1 nM, 3, 10 or 30 minutes, PMA 100 nM, 10 minutes
# BAEC = assay: DNA synthesis by BrdU incorporation in BAEC; assay type: cell-based, bovine; settings: control siRNA condition; VEGF 1 nM
# Experimental: For measurement of DNA synthesis, cells were trypsin-treated 2 days after transfection with siRNA, and 10,000 cells were added to each well (0.32 cm^2) of 96-well plates in serum-free DMEM with 0.1% BSA, with or without VEGF 1 nM. After 16 hours, cells were labeled with 5-bromo-2′-deoxyuridine (BrdU) according to the manufacturer's instructions (Roche Applied Science, Penzberg, Germany). In short, the medium was replaced with medium containing 10 μM BrdU. After an additional 8 hours, cells were fixed and incubated with anti-BrdU antibody conjugated with peroxidase. After washing, a solution of tetramethyl-benzidine was added, and the color reaction quantitated by measuring the difference between the optical density at 370 and 492 nm.
# Erk1/2 phosphorylation = assay: Western blot of Erk1/2 phosphorylation in BAEC; assay type: cell-based, bovine; settings: control siRNA; VEGF 1 nM, 5 minutes
# Experimental: as §2, §3
# VEGFR2 = VEGFR2 protein expression (immunoprecipitation and immunoblot) in BAEC; assay type: cell-based, bovine; settings: cells transfected with control siRNA; VEGF 1 nM, 5 minutes
# Experimental: For VEGFR2 and VEGFR1 immunoprecipitation, approximately 1 mg of protein was immunoprecipitated with 20 μg polyclonal antibody (Santa Cruz Biotechnology, Santa Cruz, Calif.) and washed 3 times with lysis buffer. Whole cell lysate or immunoprecipitates were reduced by addition of modified Laemmli buffer (Invitrogen) and heating to 70° C. for 10 minutes. Samples were then separated on precast minigels (NuPAGE tris-acetate gels, Invitrogen) and electrotransferred to a nitrocellulose membrane. […]
# as §3, with “The intensity of phospho-specific immunoblot was normalized to the intensity of the unstimulated condition and of the nonphospho-specific protein.” left out
# eNOS, Akt, Erk, or p38 = assay: Phosphorylation of eNOS, Akt, Erk, p38 after placental growth factor in BAEC; assay type: cell-based, bovine; settings: data not shown
# Experimental: Next, VEGFR1 and VEGFR2 expression was examined. BAEC were transfected with siRNA, including the PKCε siRNA used in the previous experiments (abbreviated “ε1” here) and a second PKCε (“ε2”), grown, and serum-starved. VEGFR2 (a) or VEGFR1 (b) mRNA was measured in cell lysate by real-time PCR VEGF signal transduction during PKC knockdown could change because VEGFR2 expression results in a secondary change in VEGFR1/Fms-like tyrosine kinase-1 (Flt-1) expression. Indeed, PKCα and PKCδ knockdown increased VEGFR1 mRNA expression to 240±20 and 178±1% of the control siRNA condition, respectively (FIG. 12b, p<0.01). […] VEGFR1 protein or VEGFR1-mediated signal transduction was not detected by Western blotting in these cells. […] Thus, VEGFR1 protein is likely expressed at a very low level compared to VEGFR2 in BAEC. Changes seen in VEGF signal transduction during PKCα and δ knockdown could be influenced by upregulation of VEGFR1, but there is no indication that changes in VEGF signaling during PKCε knockdown can be attributed to changes in VEGFR1 mRNA expression.
# [3] = GFX 1 μM, 30 minutes pre-incubation, with or without insulin or VEGF
# [4] = control siRNA condition, VEGF 1 nM, 5 minutes
molecule,measurement,setting,value
"CN(C)CCCn1cc(C2=C(c3c[nH]c4ccccc34)C(=O)NC2=O)c2ccccc21 [GFX, GF109203X]",effect on the actions of PMA on eNOS phosphorylation,[1]; [3],completely prevented
same,effect on the actions of PMA on Akt phosphorylation,[2]; [3],completely prevented
insulin: bovine insulin (Sigma),eNOS Ser1179 phosphorylation increased during stimulation,"[1]; BAEC, 5 minutes",1.8±0.2 fold
same,Akt Ser473 phosphorylation increased after stimulation,[2]; 5 minutes,3.7±0.7 fold
COC[C@H]1OC(=O)c2coc3c2[C@@]1(C)C1=C(C3=O)[C@@H]2CCC(=O)[C@@]2(C)C[C@H]1OC(C)=O [wortmannin],inhibition at 0.1 µM,"[1]; Bos taurus, BAEC, wortmannin 100 nM, 30 minutes, VEGF 1 nM, 5 minutes, read-out: inhibition of VEGF-stimulated eNOS phosphorylation",30 ± 9%
same,"eNOS phosphorylation, % of basal","[1]; wortmannin 100 nM, 30 minutes, unstimulated",63±1 % of basal
"CCCCCCCCCCCCCC(=O)O[C@@H]1[C@@H](C)[C@@]2(O)[C@@H](C=C(CO)C[C@]3(O)C(=O)C(C)=C[C@@H]23)[C@@H]2C(C)(C)[C@]12OC(C)=O [PMA, phorbol-12-myristate-13-acetate]",translocation of PKCε from cytosol to membrane fractions,PKCε,stimulated translocation
same,eNOS Ser1179 phosphorylation increase when VEGF was preceded by PMA,"[1]; PMA 100 nM, 30 minutes, VEGF 1 nM, 5 minutes",2.7±0.4 fold
same,eNOS Ser1179 phosphorylation increase when insulin was preceded by PMA,"[1]; PMA 100 nM, 30 minutes, insulin 100 nM, 5 minutes",1.2±0.2 fold
same,increase in VEGF-stimulated eNOS Ser1179 phosphorylation,[1]; PMA in the presence of wortmannin,50±9%
same,translocation of PKCδ from cytosol to membrane fractions,PKCδ,stimulated translocation
same,translocation of PKCα from cytosol to membrane fractions,PKCα,stimulated translocation
same,decrease in Akt Ser473 phosphorylation,"[2]; after VEGF stimulation (1 nM, 5 minutes)",79±4%
same,decrease in Akt Ser473 phosphorylation,"[2]; after insulin stimulation (100 nM, 5 minutes)",81±4%
same,decrease in Akt Ser473 phosphorylation,[2]; basal state,59±12%
VEGF,translocation of PKCε from cytosol to membrane fractions,PKCε,stimulated translocation
same,maximal decrease in cytosol expression of PKCε,"PKCε; VEGF 1 nM, at 3 minutes",57±21%
same,maximal increase in membrane expression of PKCε,"PKCε; VEGF 1 nM, at 3 minutes",31±5%
same,eNOS Ser1179 phosphorylation increased during stimulation,"[1]; BAEC, 5 minutes",2.6±0.5 fold
same,"VEGF-stimulated eNOS phosphorylation, fold increase",[1]; [4],5.2±0.5 fold
same,VEGF-increased BrdU incorporation,BAEC,34%
same,translocation of PKCδ from cytosol to membrane fractions,PKCδ,stimulated translocation
same,maximal decrease in cytosol expression of PKCδ,"PKCδ; VEGF 1 nM, at 3 minutes",29±25%
same,maximal increase in membrane expression of PKCδ,"PKCδ; VEGF 1 nM, at 10 minutes",39±10%
same,VEGF-increased phosphorylation of Erk1/2,Erk1/2 phosphorylation,10±1.8 fold
same,translocation of PKCα from cytosol to membrane fractions,PKCα,stimulated translocation
same,maximal decrease in cytosol expression of PKCα,"PKCα; VEGF 1 nM, at 3 minutes",18±10%
same,maximal increase in membrane expression of PKCα,"PKCα; VEGF 1 nM, at 3 minutes",72±57%
same,VEGF-stimulated decrease in VEGFR2 protein,VEGFR2,12±3%
same,Akt Ser473 phosphorylation increased after stimulation,[2]; 5 minutes,2.9±0.8 fold
same,"VEGF-stimulated Akt phosphorylation, fold increase",[2]; [4],1.7±0.1 fold
"placental growth factor: placental growth factor, which activates VEGFR1 but not VEGFR2 (protein, UniProt P49763 19-221, looked up) Placenta growth factor: LPAVPPQQWALSAGNGSSEVEVVPFQEVWGRSYCRALERLVDVVSEYPSEVEHMFSPSCVSLLRCTGCCGDENLHCVPVETANVTMQLLKIRSGDRPSYVELTFSQHVRCECRHSPGRQSPDMPGDFRADAPSFLPPRRSLPMLFRMEWGCALTGSQSAVWPSSPVPEEIPRMHPGRNGKKQQRKPLREKMKPERCGDAVPRR","phosphorylation of eNOS, Akt, Erk, or p38","eNOS, Akt, Erk, or p38",did not increase
